According to patent publication US4071408A, “Neuraminidase” (Research Corporation, priority 1976, dated 1978):
“And” between values parts separate entries of the source, which are not always exact repeats. Equal entries are not always repeated.

System: Arthrobacter sialophilum neuraminidase (NANAase, E.C.3.2.1.18), purified extracellular enzyme
Assay: Neuraminidase kinetics and effector tests (release of N-acetylneuraminic acid, citrate-phosphate buffer pH 6.0, 37° C.)
Type: biochemical
Method: Neuraminidase and related assays. The activity of enzyme preparations was determined as follows: A reaction mixture containing 40 μmols of citrate-phosphate buffer, pH 6.0, 1.0 mg of Collocalia mucoid and the enzyme fraction in a final volume of 0.50 ml was incubated at 37° C. Aliquots of 0.20 ml were withdrawn at 5 and 10 minutes, and the N-acetylneuraminic acid determined. In all experiments, zero time points were run for each extract. A unit of enzyme activity is defined as that amount which releases 1 μmol of N-acetylneuraminic acid per minute from the mucoid preparation, under conditions of the standard assay given above. Specific activity is expressed as units/mg of protein. Protein was determined with crystalline bovine serum albumin as standard. N-acetylneuraminate pyruvatelyase assays were carried out.
Enzyme characteristics. Enzyme activity increased linearly with concentration up to 0.28 mg/ml protein. The effect of pH on the activity was examined in citrate-phosphate buffer. A pH activity profile with Collocalia mucoid gave a broad optimum around 5-6. The Km values for Collocalia mucoid and N-acetylneuraminlactose were determined from the kinetic data given as inverse plots. […]

| Molecule | effect of EDTA on neuraminidase activity (EDTA between 10^-3 M and 10^-2 M, included in the assay mixture or preincubated with the enzyme for 30 min at 37° C.) | Km (apparent Km from inverse plots of kinetic data, purified enzyme, read-out: Km for N-acetylneuraminlactose) |
| --- | --- | --- |
| O=C(O)CN(CCN(CC(=O)O)CC(=O)O)CC(=O)O [EDTA] | no effect | – |
| N-acetylneuraminlactose | – | ~3.3 mM and 3.3 mM |
